Laboratory results from ChEMBL document CHEMBL1201862, “PubChem BioAssay data set” (2004).
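Following 48 hours of exposure in 96-well plates, responses at five concentrations were used to interpolate endpoints linearly. At the GI50, growth is halved.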 The source made the active and inactive calls. Rule as the data show it: active = GI50 up to about 1.1 µM and inactive = higher.

Tests used:
Test in all cases: NCI anticancer screen, dose series, 48 h
XF498 = tested on: XF498
Hs-578T = tested on: Hs-578T
MDA-MB-435 = tested on: MDA-MB-435
DU-145 = tested on: DU-145
MDA-N = tested on: MDA-N
PC-3 = tested on: PC-3
BT-549 = tested on: BT-549

Row | SMILES | GI50 (XF498) | GI50 (Hs-578T) | GI50 (MDA-MB-435) | GI50 (DU-145) | GI50 (MDA-N) | GI50 (PC-3) | GI50 (BT-549)
1 | CN(C)CCNC(=O)c1cccc2nc(-c3ccccc3)oc12 | 34.3 µM (inactive) | – | – | – | – | – | –
2 | CCOC(=O)C1=NN(c2ccccc2)C2=CC(C)=NN(C)C(=S)N21 | – | > 100 µM (inactive) | > 100 µM (inactive) | > 100 µM (inactive) | > 100 µM (inactive) | > 100 µM (inactive) | > 100 µM (inactive)
3 | CCP(=S)(CC)CCl | – | > 100 µM (inactive) | – | > 100 µM (inactive) | > 100 µM (inactive) | > 100 µM (inactive) | –
4 | CC(=O)OC1CC2(O)C(CCC3(C)C(c4ccc(=O)oc4)CCC32O)C2(C)CCC(O)C=C12 (configuration not stated) | 0.0381 µM (active) | – | – | – | – | – | –
